Test results taken from patent EP0894089B9, “NOVEL HETEROCYCLIC COMPOUNDS HAVING ANTIDIABETIC, HYPOLIPIDAEMIC, ANTIHYPERTENSIVE PROPERTIES, PROCESS FOR THEIR PREPARATION AND PHARMACEUTICAL COMPOSITIONS CONTAINING THEM” (Dr. Reddy's Laboratories Ltd., priority 1997, dated 1997).
Counter-ions that a name gives are not always drawn.

Tested on: C57BL/KsJ-db/db mice
Assay: blood sugar and triglycerides lowering activity in db/db mice (in vivo)
Conditions: male C57BL/KsJ-db/db mice; for Triglyceride Lowering (%) / Reduction in Blood Glucose Level (%): 30 mg / kg oral gavage daily for 6 days, one hour after administration; for Triglyceride Lowering (%): plasma triglyceride on 6th day; for Reduction in Blood Glucose Level (%): random plasma glucose on 6th day
From the text: Mutation in colonies of laboratory animals and different sensitivities to dietary regimens have made the development of animal models with non-insulin dependent diabetes associated with obesity and insulin resistance possible. Genetic models such as db/db and ob/ob (See Diabetes, (1982) 31(1) : 1- 6) in mice and fa/fa and zucker rats have been developed by the various laboratories for understanding the pathophysiology of disease and testing the efficacy of new antidiabetic compounds (Diabetes, (1983) 32: 830-838; Annu. Rep. Sankyo Res. Lab. (1994). 46 : 1-57). The homozygous animals, C57 BL/KsJ-db/db mice developed by Jackson Laboratory, US, are obese, hyperglycemic, hyperinsulinemic and insulin resistant (J. Clin. Invest., (1990) 85 : 962-967), whereas heterozygous are lean and normoglycemic. In db/db model, a mouse progressively develops insulinopenia with age, a feature commonly observed in late stages of human type II diabetes when blood sugar levels are insufficiently controlled. The state of pancreas and its course vary according to the models. Since this model resembles that of type II diabetes mellitus, the compounds of the present invention were tested for blood sugar and triglycerides lowering activities.
Male C57BL/KsJ-db/db mice of 8 to 14 weeks age, having body weight range of 35 to 60 grams, procured from the Jackson Laboraotory, USA, were used in the experiment. The mice were provided with standard feed (National Institute of Nutrition, Hyderabad, India) and acidified water, ad libitum. The animals having more than 300 mg / dl blood sugar were used for testing. The number of animals in each group was 4.
The random blood sugar and triglyceride levels were measured by collecting blood (100 µl) through orbital sinus, using heparinised capillary in tubes containing EDTA which was centrifuged to obtain plasma. The plasma glucose and triglyceride levels were measured spectrometrically, by glucose oxidase and glycerol-3-PO4 oxidase/peroxidase enzyme (Dr. Reddy's Lab. Diagnostic Division Kits, Hyderabad, India) methods respectively. On 6th day the blood samples were collected one hour after administration of test compounds / vehicle for assessing the biological activity.
Test compounds were suspended on 0.25 % carboxymethyl cellulose and administered to test group at a dose of 30 mg / kg through oral gavage daily for 6 days. The control group received vehicle (dose 10 ml / kg).
The blood sugar and triglycerides lowering activities of the test compound was calculated according to the formula: Blood sugar / triglycerides lowering activity (%) = 1 -(DT/DC)/(TC/ZC)X 100 [formula] • ZC = Zero day control group value • DC = Zero day treated group value • TC = Control group value on test day • DT = Treated group value on the test day

SMILES: Cc1c(C)c2c(c(C)c1OCc1ccccc1)CCC(C)(CN1CCC[C@H]1COc1ccc(CC3SC(=O)NC3=O)cc1)O2 (stereo partly drawn) [Example 7, 5-[4-[N-(2RS)-6-Benzyloxy-2,5,7,8,-tetramethylchroman-2-ylmethyl]-(2S)-pyrrolidine-2-methoxy]phenyl methyl]thiazolidine-2,4-dione, sodium salt]
- Triglyceride Lowering (%): 70%
- Reduction in Blood Glucose Level (%): 36%

SMILES: Cc1c(C)c2c(c(C)c1OCc1ccccc1)C(CN1CCC[C@H]1COc1ccc(C=C3SC(=O)NC3=O)cc1)C(C)(C)O2 (stereo partly drawn) [Example 13, 5-[4-[N-[3(RS)-5-Benzyloxy-2,3-dihydro-2,2,4,6,7-pentamethylbenzofuran-3-ylmethyl]-(2S)-pyrrolidine-2-methoxy]phenylmethylene]thiazolidine-2,4-dione maleate]
- Triglyceride Lowering (%): 42%
- Reduction in Blood Glucose Level (%): 45%

SMILES: Cc1oc2c(C)c(C)c(OCc3ccccc3)c(C)c2c1CN1CCC[C@H]1COc1ccc(C=C2SC(=O)NC2=O)cc1 [Example 20, 5-[4-[N-(5-Benzyloxy-2,4,6,7-tetramethylbenzofuran-3-ylmethyl)-(2S)-pyrrolidine-2-methoxy]phenylmethylene]thiazolidine-2,4-dione]
- Triglyceride Lowering (%): 43%
- Reduction in Blood Glucose Level (%): 16%

SMILES: Cc1c(C)c2c(c(C)c1O)CCC(C)(COc1ccc(CC3SC(=O)NC3=O)cc1)O2 (stereo not shown) [Troglitazone, reference compound]
- reduction in random blood sugar level (100 mg / kg, daily dose, on 6th day): 28%
